{"source": "patent US20200323991A1", "about": "“PBD CONJUGATES FOR TREATING DISEASES” (ENDOCYTE, INC., priority 2016, published 2020)", "key": {"[1]": {"tested_on": "TNBC PDX tumor", "test": "In vivo activity against triple negative breast tumors (FIG. 38)", "parameters": "species or system mice", "conditions": "1.0 μmol/kg SIW for two weeks", "protocol": "(§1) Mice were maintained and tumor volumes were measures according to Method 3.\n(§2) Primary human TNBC model ST502 (2-4 mm in diameter) or primary human TNBC model ST738 (2-4 mm in diameter) were inoculated subcutaneously at the right flank of each mouse. Mice were randomized into experimental groups of 7 mice each and test articles were injected through the lateral tail vein under sterile conditions in a volume of 200 μL of phosphate-buffered saline (PBS)."}, "[2]": {"tested_on": "KB cells", "format": "cell-based, human", "conditions": "read-out: IC50 value, 3H-thymidine incorporation", "protocol": "The conjugates described herein were evaluated using an in vitro cytotoxicity assay that predicted the ability of the drug to inhibit the growth of the corresponding targeted cells, such as, but not limited to the following\nIt is to be understood that the choice of cell type can be made on the basis of the susceptibility of those selected cells to the drug that forms the conjugate, and the relative expression of the cell surface receptor or target antigen. The test conjugates were conjugates of a cell surface receptor or target antigen binding compound and PBD prodrugs, poly-PBD prodrugs, and mixed PBDs, as described herein. The test cells were exposed to varying concentrations of the conjugates, and optionally also in the absence or presence of at least a 100-fold excess of the unconjugated cell surface receptor or target antigen binding compound for competition studies to assess activity as being specific to the cell surface receptor or target antigen.\nKB cells were seeded in individual 24-well Falcon plates and allowed to form nearly confluent monolayers overnight in folate free Roswell Park Memorial Institute (FFRPMI)/Heat-Inactivated Fetal Calf Serum (HIFCS). Thirty minutes prior to the addition of folate-conjugate, spent medium was aspirated from all wells and replaced with either fresh FFRPMI or FFRPMI supplemented with 100 μM folic acid. […] Cells were pulsed for 2 h at 37° C., rinsed 4 times with 0.5 mL of medium and then chased in 1 mL of fresh medium up to 72 h. Spent medium was aspirated from all wells and replaced with fresh medium containing 5 μCi/mL of ^3H-thymidine. Following a 2 h incubation at 37° C., cells were washed 3 times with 0.5 mL of PBS and then treated with 0.5 mL of ice-cold 5% trichloroacetic acid per well. After 15 min, the trichloroacetic acid was aspirated and the cells solubilized by the addition of 0.5 mL of 0.25 N sodium hydroxide for 15 min at room temperature. Four hundred and fifty […] of each solubilized sample were transferred to scintillation vials containing 3 mL of Ecolume scintillation cocktail and counted in a liquid scintillation counter. Final results were expressed as the percentage of ^3H-thymidine incorporation relative to untreated controls."}, "[3]": {"tested_on": "KB tumor", "test": "Antitumor activity in large KB tumor model", "format": "in vivo, mice", "conditions": "0.5 μmol/kg, once a week for two weeks", "protocol": "Female Balb/c nu/nu mice were fed ad libitum with folate-deficient chow (Harlan diet #TD01013) for the duration of the experiment. KB tumor cells were inoculated subcutaneously at the right flank of each mouse. Mice were dosed after the tumors reached an average of 100 and 180 mm^3 through the lateral tail vein under sterile conditions in a volume of […] of phosphate-buffered saline (PBS).\n(§3) Growth of each s.c. tumor was followed by measuring the tumor two times per week. Tumors were measured in two perpendicular directions using Vernier calipers, and their volumes were calculated as 0.5×L×W^2, where L=measurement of longest axis in mm and W=measurement of axis perpendicular to L in mm."}, "[4]": {"test": "Toxicity in KB tumor bearing mice", "format": "in vivo", "conditions": "0.5 μmol/kg, once a week for two weeks", "protocol": "The percentage weight change of the test animals was determined on selected days post-tumor inoculation (PTI), and during dosing. The results were graphed."}, "[5]": {"molecular_target": "T1, folate receptor (Homo sapiens, UniProt P15328)", "T1 construct": "endogenous in cells; host or cells: KB cells", "T1 sequence (P15328 25-234)": "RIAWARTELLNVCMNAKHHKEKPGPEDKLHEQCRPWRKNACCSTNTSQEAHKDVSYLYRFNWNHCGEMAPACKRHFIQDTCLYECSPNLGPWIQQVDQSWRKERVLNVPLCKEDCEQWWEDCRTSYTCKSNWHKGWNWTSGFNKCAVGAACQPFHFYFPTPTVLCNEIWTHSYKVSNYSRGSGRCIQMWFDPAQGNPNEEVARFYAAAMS", "test": "Relative affinity assay (displacement of [3H]FA bound to FR on KB cells)", "format": "binding", "conditions": "100 nmol/L [3H]FA, 1 h at 37° C.", "protocol": "FR-positive KB cells were seeded in 24-well Falcon plates and allowed to form adherent monolayers (>90% confluent) overnight in FFRPMI/HIFCS. Spent incubation medium was replaced with FFRPMI supplemented with 10% HIFCS and containing 100 nmol/L of [^3H]FA in the absence and presence of increasing concentrations of unlabeled FA or the test conjugate. Cells were incubated for 1 h at 37° C. and then rinsed thrice with 0.5 mL PBS. Five hundred microliters of 1% SDS in PBS were added to each well; after 5 min, cell lysates were collected, transferred to individual vials containing 5 mL of scintillation cocktail, and then counted for radioactivity.\nCells exposed to only the [3H]FA in FFRPMI (no competitor) were designated as negative controls, whereas cells exposed to the [3H]FA plus 1 mmol/L unlabeled FA served as positive controls. Disintegrations per minute (DPM) measured in the latter samples (representing nonspecific binding of label) were subtracted from the DPM values from all samples."}, "[6]": {"tested_on": "Calf thymus DNA (CT-DNA)", "test": "DNA crosslinking assay (ethidium bromide fluorescence)", "format": "biochemical", "protocol": "(§4) Calf thymus DNA (CT-DNA) was combined with increasing concentrations of Conjugate 1 (0.14 to 33.3 pM) or Conjugate 1+/− DTT. CT-DNA+Melphalan was used as a positive control and CT-DNA+DMSO was used as a negative control. These solutions were incubated at 37° C. for 2 hours. The solutions were then mixed with ethidium bromide and incubated for 2 hours at room temperature. Fluorescence (Ex: 535 nm, Em: 605 nm) from these samples was measured on the Fluoroskan II fluorimeter. Next, the samples were heated to 104° C. for 5 minutes, cooled on ice for 5 minutes, kept at RT for 15 minutes and fluorescence measured. % crosslinking of each sample was calculated using the fluorescence values from the positive and negative controls.\nas §4, with “5 (1.1” for “1 (0.14”, “75” for “33.3”, “5+/−” for “1+/−”, “DTT.” for “DTT. CT-DNA+Melphalan was used as a positive control and CT-DNA+DMSO was used as a negative control.”"}, "[7]": {"tested_on": "MDA-MB231 cells", "test": "3H-thymidine incorporation in MDA-MB231 cells", "format": "cell-based, human", "conditions": "MDA-MB-231 cells, 100 μM folic acid", "protocol": "MDA-MB231 (human breast cancer) cells were seeded in 12-well Falcon plates and allowed to form nearly confluent monolayers overnight in FFRPMI/HIFCS. Designated wells received medium containing 100μM folic acid (nontoxic FR blocker) and were used to determine the targeting specificity. Each well then received increasing concentrations of Conjugate 1 (n=4). Cells were pulsed for 2 h at 37° C., rinsed with medium, and then chased in fresh medium up to 72 h. Spent medium was aspirated and replaced with medium containing [3H]thymidine. Following a 2 h incubation, cells were washed with PBS and then treated with 5% trichloroacetic acid. The trichloroacetic acid was aspirated and cells were solubilized in 0.25 N sodium hydroxide. Each solubilized sample were transferred to scintillation vials containing Ecolume scintillation cocktail and counted in a liquid scintillation counter. Final results were expressed as the percentage of [3H]thymidine incorporation relative to untreated controls and IC50 were values calculated using GraphPad Prism software."}, "[8]": {"tested_on": "ST070 ovarian PDX tumors", "test": "In vivo activity against ovarian tumors, ST070", "parameters": "species or system mice", "conditions": "15.0 mg/kg SIW for two weeks", "protocol": "as §1\nas §2, with “Ovarian” for “TNBC”, “ST070 fragments” for “ST502 (2-4 mm in diameter) or primary human TNBC model ST738”"}, "[9]": {"tested_on": "Endometrial PDX tumor (ST040)", "test": "In vivo activity against endometrial tumors, ST040", "parameters": "species or system mice", "conditions": "15 mg/kg SIW for two weeks", "protocol": "Female Balb/c nu/nu mice were fed ad libitum with folate-deficient chow (Harlan diet #TD01013) for the duration of the experiment. Primary human Endometrial model ST040 fragments (2-4 mm in diameter) were inoculated subcutaneously at the right flank of each mouse. Mice were randomized into experimental groups of 7 mice each and test articles were injected through the lateral tail vein under sterile conditions in a volume of 200 μL of phosphate-buffered saline (PBS). These studies were performed at South Texas Accelerated Research Therapeutics, 4383 Medical Drive, San Antonio, Tex. 78229.\nas §3, with “week until a volume of 1200 mm^3 was reached.” for “week.”"}, "[10]": {"conditions": "with excess folate (100 μM folic acid)"}, "[11]": {"conditions": "without excess folate, 2 h pulse, chase up to 72 h"}}, "note": "Read-outs that look alike come from different tables or passages of the source."}
{"molecule": "erubulin mesylate", "values": [{"measurement": "TNBC PDX tumor size compared to untreated control", "setting": "[1]", "value": "did not decrease TNBC PDX tumor size"}]}
{"molecule": "C=C1C[C@H]2C=Nc3cc(OCCCCCOc4cc5c(cc4OC)C(=O)N4CC(=C)C[C@H]4[C@H](O)N5C(=O)OCCSSC[C@H](NC(=O)[C@H](CC(=O)O)NC(=O)[C@H](CC(=O)O)NC(=O)[C@H](CCCNC(=N)N)NC(=O)[C@H](CC(=O)O)NC(=O)CC[C@H](NC(=O)c4ccc(NCc5cnc6nc(N)[nH]c(=O)c6n5)cc4)C(=O)O)C(=O)O)c(OC)cc3C(=O)N2C1", "note": "[Conjugate 3]", "values": [{"measurement": "IC50", "setting": "[2]; [10]", "value": 3, "unit": "nM"}, {"measurement": "IC50", "setting": "[2]; [11]", "value": 0.039, "unit": "nM"}, {"measurement": "complete responses", "setting": "[3]", "value": 100, "unit": "%"}, {"measurement": "day on which mice had to be euthanized due to toxicity", "setting": "[4]", "value": 48, "unit": "days"}]}
{"molecule": "C=C1C[C@H]2C=Nc3cc(OCCCCCOc4cc5c(cc4OC)C(=O)N4CC(=C)C[C@H]4[C@H](O)N5C(=O)OCC(C)SSC[C@H](NC(=O)[C@H](CC(=O)O)NC(=O)[C@H](CC(=O)O)NC(=O)[C@H](CCCNC(=N)N)NC(=O)[C@H](CC(=O)O)NC(=O)CC[C@H](NC(=O)c4ccc(NCc5cnc6nc(N)[nH]c(=O)c6n5)cc4)C(=O)O)C(=O)O)c(OC)cc3C(=O)N2C1", "note": "(some centres unmarked) [Conjugate 1]", "values": [{"measurement": "relative binding affinity toward the folate receptor, fold lower than that of folic acid", "setting": "[5]", "value": "~4.2", "unit": "fold"}, {"measurement": "DNA crosslinking by reduced form", "setting": "[6]; treated with DTT", "value": "crosslink with DNA"}, {"measurement": "DNA crosslinking by intact conjugate", "setting": "[6]; without DTT", "value": "not able to crosslink DNA"}, {"measurement": "cytotoxic activity in the presence of an excess of free folate", "setting": "[7]", "value": "significant reduction in activity"}, {"measurement": "cures", "setting": "[3]", "value": 100, "unit": "%"}]}
{"molecule": "CC(=O)O[C@H]1C(=O)[C@@]2(C)[C@H]([C@H](OC(=O)c3ccccc3)[C@]3(O)C[C@H](OC(=O)[C@H](O)[C@@H](NC(=O)c4ccccc4)c4ccccc4)C(C)=C1C3(C)C)[C@]1(OC(C)=O)CO[C@@H]1C[C@@H]2O", "note": "[paclitaxel]", "values": [{"measurement": "tumor size compared to untreated control", "setting": "[8]", "value": "did not have decreased tumor size"}, {"measurement": "partial response subjects", "setting": "[9]", "value": 0, "unit": "%"}]}
{"molecule": "C=C1C[C@H]2C=Nc3cc(OCCCCCOc4cc(N)c(C(=O)N5CC(=C)C[C@H]5C5OCCN5C(=O)OCC(C)SSC[C@H](NC(=O)[C@H](CC(=O)O)NC(=O)[C@H](CC(=O)O)NC(=O)[C@H](CCCNC(=N)N)NC(=O)[C@H](CC(=O)O)NC(=O)CC[C@H](NC(=O)c5ccc(NCc6cnc7nc(N)[nH]c(=O)c7n6)cc5)C(=O)O)C(=O)O)cc4OC)c(OC)cc3C(=O)N2C1", "note": "(some centres unmarked) [Conjugate 4]", "values": [{"measurement": "IC50", "setting": "[2]; [10]", "value": 6, "unit": "nM"}, {"measurement": "IC50", "setting": "[2]; [11]", "value": 0.049, "unit": "nM"}, {"measurement": "cures", "setting": "[3]", "value": 100, "unit": "%"}]}
{"molecule": "C=C1C[C@H]2C=Nc3cc(OCCCCCOc4cc(N)c(C(=O)N5CC(=C)C[C@H]5C5CCCN5C(=O)OC[C@@H](SSC[C@H](NC(=O)[C@H](CC(=O)O)NC(=O)[C@H](CC(=O)O)NC(=O)[C@H](CCCNC(=N)N)NC(=O)[C@H](CC(=O)O)NC(=O)CC[C@H](NC(=O)c5ccc(NCc6cnc7nc(N)[nH]c(=O)c7n6)cc5)C(=O)O)C(=O)O)C(C)C)cc4OC)c(OC)cc3C(=O)N2C1", "note": "(some centres unmarked) [Conjugate 12]", "values": [{"measurement": "PRs (partial responses)", "setting": "[3]", "value": 100, "unit": "%"}, {"measurement": "day on which mice had to be euthanized due to toxicity", "setting": "[4]", "value": 40, "unit": "days"}]}
